# Data as given in patent publication US8999982B2, “Pharmaceutically active compounds as Axl inhibitors” (Lead Discovery Center GmbH, priority 2010, dated 2015).
# What was measured:
# Axl [1] = biological target: T1, Axl (Homo sapiens (Human), UniProt P30530); experiment: Cellular Axl phosphorylation assay; assay type: cell-based; conditions: HEK293 cells transfected with Axl cDNA, 1 hour incubation
# How it was run: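 Transiently Axl-transfected HEK293 cells, with a vector-only negative control, were treated with compound for 1 hour on the day after medium change. Axl phosphorylation was quantified by mesoscale detection.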
# Axl [2] = biological target: T1, Axl; experiment: Axl binding assay
# Protocol: Binding of the tracer to the kinase is detected using an EU-labeled anti-tag antibody. […] Binding of an inhibitor to the kinase competes for binding with the tracer, resulting in a loss of FRET-signal. At first a compound according to formula (I) was diluted in 20 mM Hepes pH 8.0, 1 mM DTT, 10 mM MgCl2 and 0.01% Brij35.
# T1 sequence (P30530 26-894): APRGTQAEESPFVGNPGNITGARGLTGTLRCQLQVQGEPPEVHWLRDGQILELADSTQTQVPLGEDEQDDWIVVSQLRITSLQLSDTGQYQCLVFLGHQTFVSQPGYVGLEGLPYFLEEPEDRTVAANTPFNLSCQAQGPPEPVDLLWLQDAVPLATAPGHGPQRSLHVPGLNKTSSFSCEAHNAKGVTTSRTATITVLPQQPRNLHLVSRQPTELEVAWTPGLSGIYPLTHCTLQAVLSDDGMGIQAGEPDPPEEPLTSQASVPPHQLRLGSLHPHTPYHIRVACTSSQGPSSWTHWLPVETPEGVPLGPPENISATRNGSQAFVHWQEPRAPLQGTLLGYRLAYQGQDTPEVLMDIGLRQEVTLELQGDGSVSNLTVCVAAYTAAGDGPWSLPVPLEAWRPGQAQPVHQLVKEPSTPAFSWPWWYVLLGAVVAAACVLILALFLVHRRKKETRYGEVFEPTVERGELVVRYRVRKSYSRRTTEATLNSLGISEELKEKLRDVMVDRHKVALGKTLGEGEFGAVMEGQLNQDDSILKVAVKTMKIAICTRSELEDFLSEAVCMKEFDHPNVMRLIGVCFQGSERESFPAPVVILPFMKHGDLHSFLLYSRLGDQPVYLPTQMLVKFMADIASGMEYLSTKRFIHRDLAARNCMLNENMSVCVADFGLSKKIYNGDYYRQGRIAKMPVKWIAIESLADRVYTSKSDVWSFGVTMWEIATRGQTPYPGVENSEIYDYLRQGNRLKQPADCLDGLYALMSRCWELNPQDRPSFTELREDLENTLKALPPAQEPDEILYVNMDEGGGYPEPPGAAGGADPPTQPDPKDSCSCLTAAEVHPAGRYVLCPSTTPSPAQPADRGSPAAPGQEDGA
SMILES,IC50 (Axl [1]),IC50 (Axl [2])
"CCOc1cn(-c2ccc(OC)cc2C)nc1C(=O)Nc1ccc(Oc2ccnc3cc(OC)c(OC)cc23)cn1 [Example 89, N-(5-((6,7-dimethoxyquinolin-4-yl)oxy)pyridin-2-yl)-4-ethoxy-1-(4-methoxy-2-methylphenyl)-1H-pyrazole-3-carboxamide]",< 0.5 µM,< 0.5 µM
"CCOc1cn(-c2cccc([N+](=O)[O-])c2)nc1C(=O)Nc1ccc(Oc2ccnc3cc(OC)c(OC)cc23)c(F)c1 [Example 90, N-(4-((6,7-dimethoxyquinolin-4-yl)oxy)-3-fluorophenyl)-4-ethoxy-1-(3-nitrophenyl)-1H-pyrazole-3-carboxamide]",< 0.5 µM,< 0.5 µM
"CCOc1cn(-c2ccc(OC)cc2C)nc1C(=O)Nc1ccc(Oc2ccnc3cc(OC)c(OC)cc23)c(F)c1 [Example 91, N-(4-((6,7-dimethoxyquinolin-4-yl)oxy)-3-fluorophenyl)-4-ethoxy-1-(4-methoxy-2-methylphenyl)-1H-pyrazole-3-carboxamide]",< 0.5 µM,< 0.5 µM
"CCOc1cn(-c2cccc([N+](=O)[O-])c2)nc1C(=O)Nc1ccc(Oc2ccnc3cc(OC)c(OC)cc23)cn1 [Example 92, N-(5-((6,7-dimethoxyquinolin-4-yl)oxy)pyridin-2-yl)-4-ethoxy-1-(3-nitrophenyl)-1H-pyrazole-3-carboxamide]",< 0.5 µM,< 0.5 µM
"CCOc1cn(-c2ccc(F)cc2C)nc1C(=O)Nc1ccc(Oc2ccnc3cc(OC)c(OC)cc23)cc1OC [Example 94, N-(4-((6,7-dimethoxyquinolin-4-yl)oxy)-2-methoxyphenyl)-4-ethoxy-1-(4-fluoro-2-methylphenyl)-1H-pyrazole-3-carboxamide]",< 0.5 µM,< 0.5 µM
"CCOc1cn(-c2ccc(F)cc2C)nc1C(=O)Nc1ccc(Oc2ccnc3cc(OC)c(OC)cc23)cc1C [Example 95, N-(4-((6,7-dimethoxyquinolin-4-yl)oxy)-2-methylphenyl)-4-ethoxy-1-(4-fluoro-2-methylphenyl)-1H-pyrazole-3-carboxamide]",0.5 to 5 µM,< 0.5 µM

# Results, then the compound that gave them:
IC50 (Axl [1]),IC50 (Axl [2]),SMILES
< 0.5 µM,< 0.5 µM,"CCOc1cn(-c2ccc(F)c(OC)c2)nc1C(=O)Nc1ccc(Oc2ccnc3cc(OC)c(OC)cc23)c(F)c1 [Example 96, N-(4-((6,7-dimethoxyquinolin-4-yl)oxy)-3-fluorophenyl)-4-ethoxy-1-(4-fluoro-3-methoxyphenyl)-1H-pyrazole-3-carboxamide]"
< 0.5 µM,< 0.5 µM,"CCOc1cn(-c2ccc(F)c(OC)c2)nc1C(=O)Nc1ccc(Oc2ccnc3cc(OC)c(OC)cc23)cn1 [Example 97, N-(5-((6,7-dimethoxyquinolin-4-yl)oxy)pyridin-2-yl)-4-ethoxy-1-(4-fluoro-3-methoxyphenyl)-1H-pyrazole-3-carboxamide]"
< 0.5 µM,0.5 to 5 µM,"CCOc1cn(-c2ccc([N+](=O)[O-])cc2)nc1C(=O)Nc1ccc(Oc2ccnc3cc(OC)c(OC)cc23)cn1 [Example 98, N-(5-((6,7-dimethoxyquinolin-4-yl)oxy)pyridin-2-yl)-4-ethoxy-1-(4-nitrophenyl)-1H-pyrazole-3-carboxamide]"
< 0.5 µM,< 0.5 µM,"CCOc1cn(-c2ccc(N)cc2)nc1C(=O)Nc1ccc(Oc2ccnc3cc(OC)c(OC)cc23)cn1 [Example 99, 1-(4-aminophenyl)-N-(5-((6,7-dimethoxyquinolin-4-yl)oxy)pyridin-2-yl)-4-ethoxy-1H-pyrazole-3-carboxamide]"
< 0.5 µM,< 0.5 µM,"COc1cc2c(Oc3ccc(NC(=O)c4nc(-c5ccccc5)cs4)nc3)ccnc2cc1OCC1CCNCC1 [Example 101, N-(5-((6-methoxy-7-(piperidin-4-ylmethoxy)quinolin-4-yl)oxy)pyridin-2-yl)-4-phenylthiazole-2-carboxamide]"
< 0.5 µM,< 0.5 µM,"COc1cc2c(Oc3ccc(NC(=O)c4nc(Br)cs4)nc3)ccnc2cc1OCC1CCNCC1 [Example 102, 4-bromo-N-(5-((6-methoxy-7-(piperidin-4-ylmethoxy)quinolin-4-yl)oxy)pyridin-2-yl)thiazole-2-carboxamide]"
< 0.5 µM,< 0.5 µM,"CCOc1cn(-c2ccc(F)cc2O)nc1C(=O)Nc1ccc(Oc2ccnc3cc(OC)c(OC)cc23)cn1 [Example 104, N-(5-((6,7-dimethoxyquinolin-4-yl)oxy)pyridin-2-yl)-4-ethoxy-1-(4-fluoro-2-hydroxyphenyl)-1H-pyrazole-3-carboxamide]"
< 0.5 µM,< 0.5 µM,"CCOc1cn(-c2cccnc2)nc1C(=O)Nc1ccc(Oc2ccnc3cc(OC)c(OC)cc23)c(F)c1 [Example 105, N-(4-((6,7-dimethoxyquinolin-4-yl)oxy)-3-fluorophenyl)-4-ethoxy-1-(pyridin-3-yl)-1H-pyrazole-3-carboxamide]"
